Source: patent US20030041357A1, “Herbicide resistant plants” (priority 1996, published 2003)
Values joined by “and” are separate entries in the source; they are usually repeats but may differ in a detail not shown here. Identical values can stand only once.

How the values were obtained:
[1] = system: pDV3 primary transformants (GOX/EPSPS tobacco); assay: Glyphosate spray test of pDV3 lines; type: in vivo, Nicotiana tabaccum var Samsun; design: scale not given here
Experimental: (§1) A kill curve is established for the effect of glyphosate on wild type tobacco. Wild type tobacco growing in tissue culture is sub-cultured by taking stem segments and growing in fresh medium to generate 20 new plants. These are grown in tissue culture for one month before transfer to 3 inch pots in John Innes No 3 compost. They are initially covered in fleece to protect them. After uncovering they are allowed to acclimatise for four days before being sprayed. After spraying watering is only into the saucers i.e. no water is allowed to touch the leaves for five days. Scoring was done 8 days and 28 days after treatment.
(§2) Following construction of the glyphosate kill curve, a number of pDV1, 2 and 3 lines are spray tested with appropriate rates of glyphosate.

[2] = system: primary transformants from pDV6-Bin; assay: Growth on herbicide-containing tissue culture medium; type: in vivo, Tobacco; settings: a number of transgenics; 0.01 and 0.05 mM glyphosate; 10 and 40 ppm alachlor
[3] = system: Wildtype tobacco; assay: Glyphosate spray test (Table 8 control); type: in vivo, Nicotiana tabaccum var Samsun
Experimental: as §1, §2

[4] = system: pDV6 plants expressing both glyphosate resistance genes and GST; assay: Pre-em/post-em herbicide treatment of DV6 plants (Table 1); design: species or system Tobacco; settings: in vivo
[5] = system: wild type controls; assay: Growth on herbicide-containing tissue culture medium; type: in vivo, Tobacco; settings: 0.01 and 0.05 mM glyphosate; 10 and 40 ppm alachlor
[6] = system: DV6/HPPD tobacco; assay: Herbicide trial of DV6/HPPD cross (Example 10); type: in vivo; settings: 800 g/ha on seedlings surviving 300 g/ha ZA1296
[7] = system: tobacco from cross DV3 #43B x ET4-208; assay: Glyphosate spray of DV3 #43B x ET4-208 seedlings; type: in vivo; settings: 500 and 800 g/ha on seedlings tolerant to bleaching herbicides; scored 14 and 28 DAT
[8] = system: Wild type plants; assay: Pre-em/post-em herbicide treatment (Table 1); type: in vivo, Tobacco; settings: post-em 800 g/ha
[9] = system: wild type tobacco; assay: Kill curve of glyphosate in tissue culture; type: in vivo, Nicotiana tabaccum var Samsun; settings: 0.005 mM in MS medium, two weeks
Excerpt: Selection on glyphosate A kill curve is constructed for growth of tobacco in tissue culture on glyphosate containing medium. This is done by inserting a stem segment ˜6 mm long and carrying a leaf node into MS medium containing a range of glyphosate isopropylamine concentrations. Four/five stem segments are used at each concentration.

[10] = system: plants transformed with the Synechocystis sp. PCC6803 4-HPPD gene; assay: Explant bleaching test on MS agar, 4-HPPD transformants (Example 2); type: in vivo, Potato and tomato; settings: subset of ZA1296 resistant plants
[11] = system: tobacco plants transformed with the Pseudomonas 4-HPPD gene; assay: Explant bleaching test on MS agar, 4-HPPD transformants (Example 1); type: in vivo, Nicotiana tabacum var Samsun; settings: subset of ZA1296 resistant plants
[12] = no pre-em, third line (plant not given)

SMILES: O=C(O)CNCP(=O)(O)O [Glyphosate, glyphosate]
- dose/response to glyphosate spray (damage) ([1]; pDV3 #11, 100 g/ha): 0
- dose/response to glyphosate spray (damage) ([1]; pDV3 #11, 300 g/ha): 0
- dose/response to glyphosate spray (damage) ([1]; pDV3 #11, 1000 g/ha): 25
- dose/response to glyphosate spray (damage) ([1]; pDV3 #11, 3000 g/ha): 70
- dose/response to glyphosate spray (damage) ([1]; pDV3 #11, 9000 g/ha): 80
- dose/response to glyphosate spray (damage) ([1]; pDV3 #14, 100 g/ha): 7
- dose/response to glyphosate spray (damage) ([1]; pDV3 #14, 300 g/ha): 22
- dose/response to glyphosate spray (damage) ([1]; pDV3 #14, 1000 g/ha): 13
- dose/response to glyphosate spray (damage) ([1]; pDV3 #14, 3000 g/ha): 33
- dose/response to glyphosate spray (damage) ([1]; pDV3 #14, 9000 g/ha): 76
- dose/response to glyphosate spray (damage) ([1]; pDV3 #19, 100 g/ha): 0
- dose/response to glyphosate spray (damage) ([1]; pDV3 #19, 300 g/ha): 0
- dose/response to glyphosate spray (damage) ([1]; pDV3 #19, 1000 g/ha): 0
- dose/response to glyphosate spray (damage) ([1]; pDV3 #19, 3000 g/ha): 35
- dose/response to glyphosate spray (damage) ([1]; pDV3 #19, 9000 g/ha): 80
- dose/response to glyphosate spray (damage) ([1]; pDV3 #21, 100 g/ha): 0
- dose/response to glyphosate spray (damage) ([1]; pDV3 #21, 300 g/ha): 5
- dose/response to glyphosate spray (damage) ([1]; pDV3 #21, 1000 g/ha): 0
- dose/response to glyphosate spray (damage) ([1]; pDV3 #21, 3000 g/ha): 24
- dose/response to glyphosate spray (damage) ([1]; pDV3 #21, 9000 g/ha): 78
- dose/response to glyphosate spray (damage) ([1]; pDV3 #31, 100 g/ha): 12
- dose/response to glyphosate spray (damage) ([1]; pDV3 #31, 300 g/ha): 0
- dose/response to glyphosate spray (damage) ([1]; pDV3 #31, 1000 g/ha): 4
- dose/response to glyphosate spray (damage) ([1]; pDV3 #31, 3000 g/ha): 26
- dose/response to glyphosate spray (damage) ([1]; pDV3 #31, 9000 g/ha): 78
- dose/response to glyphosate spray (damage) ([1]; pDV3 #34, 100 g/ha): 0
- dose/response to glyphosate spray (damage) ([1]; pDV3 #34, 300 g/ha): 0
- dose/response to glyphosate spray (damage) ([1]; pDV3 #34, 1000 g/ha): 6
- dose/response to glyphosate spray (damage) ([1]; pDV3 #34, 3000 g/ha): 30
- dose/response to glyphosate spray (damage) ([1]; pDV3 #34, 9000 g/ha): 63
- dose/response to glyphosate spray (damage) ([1]; pDV3 #36, 100 g/ha): 0
- dose/response to glyphosate spray (damage) ([1]; pDV3 #36, 300 g/ha): 0
- dose/response to glyphosate spray (damage) ([1]; pDV3 #36, 1000 g/ha): 0
- dose/response to glyphosate spray (damage) ([1]; pDV3 #36, 3000 g/ha): 0
- dose/response to glyphosate spray (damage) ([1]; pDV3 #36, 9000 g/ha): 0
- dose/response to glyphosate spray (damage) ([1]; pDV3 #37, 100 g/ha): 0
- dose/response to glyphosate spray (damage) ([1]; pDV3 #37, 300 g/ha): 0
- dose/response to glyphosate spray (damage) ([1]; pDV3 #37, 1000 g/ha): 9
- dose/response to glyphosate spray (damage) ([1]; pDV3 #37, 3000 g/ha): 24
- dose/response to glyphosate spray (damage) ([1]; pDV3 #37, 9000 g/ha): 72
- dose/response to glyphosate spray (damage) ([1]; pDV3 #43, 100 g/ha): 0
- dose/response to glyphosate spray (damage) ([1]; pDV3 #43, 300 g/ha): 0
- dose/response to glyphosate spray (damage) ([1]; pDV3 #43, 1000 g/ha): 0
- dose/response to glyphosate spray (damage) ([1]; pDV3 #43, 3000 g/ha): 6
- dose/response to glyphosate spray (damage) ([1]; pDV3 #43, 9000 g/ha): 73
- dose/response to glyphosate spray (damage) ([1]; pDV3 #44, 100 g/ha): 0
- dose/response to glyphosate spray (damage) ([1]; pDV3 #44, 300 g/ha): 40
- dose/response to glyphosate spray (damage) ([1]; pDV3 #44, 1000 g/ha): 45
- dose/response to glyphosate spray (damage) ([1]; pDV3 #44, 3000 g/ha): 78
- dose/response to glyphosate spray (damage) ([1]; pDV3 #44, 9000 g/ha): 85
- dose/response to glyphosate spray (damage) ([1]; pDV3 #45, 100 g/ha): 0
- dose/response to glyphosate spray (damage) ([1]; pDV3 #45, 300 g/ha): 0
- dose/response to glyphosate spray (damage) ([1]; pDV3 #45, 1000 g/ha): 3
- dose/response to glyphosate spray (damage) ([1]; pDV3 #45, 3000 g/ha): 9
- dose/response to glyphosate spray (damage) ([1]; pDV3 #45, 9000 g/ha): 70
- dose/response to glyphosate spray (damage) ([1]; pDV3 #47, 100 g/ha): 5
- dose/response to glyphosate spray (damage) ([1]; pDV3 #47, 300 g/ha): 0
- dose/response to glyphosate spray (damage) ([1]; pDV3 #47, 1000 g/ha): 0
- dose/response to glyphosate spray (damage) ([1]; pDV3 #47, 3000 g/ha): 11
- dose/response to glyphosate spray (damage) ([1]; pDV3 #47, 9000 g/ha): 72
- dose/response to glyphosate spray (damage) ([1]; pDV3 #60, 100 g/ha): 0
- dose/response to glyphosate spray (damage) ([1]; pDV3 #60, 300 g/ha): 0
- dose/response to glyphosate spray (damage) ([1]; pDV3 #60, 1000 g/ha): 0
- dose/response to glyphosate spray (damage) ([1]; pDV3 #60, 3000 g/ha): 19
- dose/response to glyphosate spray (damage) ([1]; pDV3 #60, 9000 g/ha): 63
- dose/response to glyphosate spray (damage) ([1]; pDV3 #64, 100 g/ha): 0
- dose/response to glyphosate spray (damage) ([1]; pDV3 #64, 300 g/ha): 5
- dose/response to glyphosate spray (damage) ([1]; pDV3 #64, 1000 g/ha): 0
- dose/response to glyphosate spray (damage) ([1]; pDV3 #64, 3000 g/ha): 12
- dose/response to glyphosate spray (damage) ([1]; pDV3 #64, 9000 g/ha): 63
- growth on tissue culture medium [2]: grow successfully
- dose/response to glyphosate spray (damage) ([3]; 12.33 g/ha): 2
- dose/response to glyphosate spray (damage) ([3]; 37 g/ha): 3
- dose/response to glyphosate spray (damage) ([3]; 100 g/ha): 20
- dose/response to glyphosate spray (damage) ([3]; 300 g/ha): 80
- dose/response to glyphosate spray (damage) ([3]; 1000 g/ha): 93
- replicate score for damage, replicate a [4]: 75 and 100
- replicate score for damage, replicate b [4]: 0
- replicate score for damage, replicate c [4]: 0
- replicate score for damage, replicate d [4]: 0 and 95
- growth on tissue culture medium [5]: fail to
- tolerance to spray [6]: demonstrate tolerance
- resistance to post-emergence spray [7]: resistant
- % Phytotoxicity (mean, 21 DAT) ([8]; Wild type, no pre-em treatment): 86.25%
- replicate score for damage, replicate a [8, 12]: 90
- replicate score for damage, replicate b [8, 12]: 90
- replicate score for damage, replicate c [8, 12]: 90
- replicate score for damage, replicate d [8, 12]: 75

SMILES: CC(C)N.O=C(O)CNCP(=O)(O)O [Glyphosate isopropylamine]
- Growth of explant [9]: No growth in any organ

SMILES: CS(=O)(=O)c1cc(C(F)(F)F)ccc1C(=O)c1cnoc1C1CC1 [Isoxaflutole, 5-cyclopropyl-4-(2-methylsulphonyl-4-trifluoromethylbenzoyl)isoxazole]
- resistance of the herbicide resistant transgenic plants [10]: resistant
- resistance of the herbicide resistant transgenic plants [11]: even more resistant
